Patent publication US7875619B2, “Hetero substituted sodium channel blockers” (Parion Sciences, Inc., priority 2004, dated 2011)
Structures can show the parent of a compound that is named as a salt.

Target: T1, sodium channel (ENaC), canine bronchial epithelia (Canis lupus familiaris, UniProt A0A8I3MKE6+A0A8I3Q679+Q95165)
T1 construct: endogenous in cells; host or cells: primary canine bronchial epithelial cells cultured at air-liquid interface, mounted in Ussing chambers
T1 sequence (A0A8I3Q679 1-649): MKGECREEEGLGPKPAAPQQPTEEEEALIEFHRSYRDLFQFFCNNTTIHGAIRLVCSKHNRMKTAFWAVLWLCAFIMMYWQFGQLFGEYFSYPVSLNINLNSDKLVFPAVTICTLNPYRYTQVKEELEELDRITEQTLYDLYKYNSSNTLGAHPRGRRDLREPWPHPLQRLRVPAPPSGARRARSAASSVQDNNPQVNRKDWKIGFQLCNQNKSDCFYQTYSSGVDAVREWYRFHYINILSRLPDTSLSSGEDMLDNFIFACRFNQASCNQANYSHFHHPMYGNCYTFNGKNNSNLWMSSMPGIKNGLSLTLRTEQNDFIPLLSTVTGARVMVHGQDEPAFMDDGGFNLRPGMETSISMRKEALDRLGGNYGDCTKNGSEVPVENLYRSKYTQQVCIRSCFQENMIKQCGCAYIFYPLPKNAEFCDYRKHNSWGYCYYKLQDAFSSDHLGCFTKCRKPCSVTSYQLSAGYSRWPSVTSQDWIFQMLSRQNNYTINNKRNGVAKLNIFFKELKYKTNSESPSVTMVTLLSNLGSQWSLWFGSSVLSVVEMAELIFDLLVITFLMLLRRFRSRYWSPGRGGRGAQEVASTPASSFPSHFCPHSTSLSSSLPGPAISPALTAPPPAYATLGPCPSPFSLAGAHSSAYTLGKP
T1 sequence (Q95165 1-641): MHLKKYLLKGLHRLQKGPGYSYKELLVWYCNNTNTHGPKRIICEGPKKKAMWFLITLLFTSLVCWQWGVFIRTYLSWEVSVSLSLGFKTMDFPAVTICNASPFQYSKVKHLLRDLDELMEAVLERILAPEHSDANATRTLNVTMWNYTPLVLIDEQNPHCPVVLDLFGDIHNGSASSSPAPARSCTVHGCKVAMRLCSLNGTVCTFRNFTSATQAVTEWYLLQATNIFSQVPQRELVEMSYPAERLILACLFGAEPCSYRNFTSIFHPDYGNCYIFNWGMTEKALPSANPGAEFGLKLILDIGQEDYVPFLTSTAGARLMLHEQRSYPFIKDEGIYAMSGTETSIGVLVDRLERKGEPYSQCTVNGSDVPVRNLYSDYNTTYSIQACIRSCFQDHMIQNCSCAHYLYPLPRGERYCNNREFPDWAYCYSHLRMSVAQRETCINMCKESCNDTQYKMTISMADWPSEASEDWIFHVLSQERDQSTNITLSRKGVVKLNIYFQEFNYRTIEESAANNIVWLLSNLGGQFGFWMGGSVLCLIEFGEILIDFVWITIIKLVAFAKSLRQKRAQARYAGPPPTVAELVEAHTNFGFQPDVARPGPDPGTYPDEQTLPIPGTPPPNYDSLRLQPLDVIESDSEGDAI
T1 sequence (A0A8I3MKE6 1-646): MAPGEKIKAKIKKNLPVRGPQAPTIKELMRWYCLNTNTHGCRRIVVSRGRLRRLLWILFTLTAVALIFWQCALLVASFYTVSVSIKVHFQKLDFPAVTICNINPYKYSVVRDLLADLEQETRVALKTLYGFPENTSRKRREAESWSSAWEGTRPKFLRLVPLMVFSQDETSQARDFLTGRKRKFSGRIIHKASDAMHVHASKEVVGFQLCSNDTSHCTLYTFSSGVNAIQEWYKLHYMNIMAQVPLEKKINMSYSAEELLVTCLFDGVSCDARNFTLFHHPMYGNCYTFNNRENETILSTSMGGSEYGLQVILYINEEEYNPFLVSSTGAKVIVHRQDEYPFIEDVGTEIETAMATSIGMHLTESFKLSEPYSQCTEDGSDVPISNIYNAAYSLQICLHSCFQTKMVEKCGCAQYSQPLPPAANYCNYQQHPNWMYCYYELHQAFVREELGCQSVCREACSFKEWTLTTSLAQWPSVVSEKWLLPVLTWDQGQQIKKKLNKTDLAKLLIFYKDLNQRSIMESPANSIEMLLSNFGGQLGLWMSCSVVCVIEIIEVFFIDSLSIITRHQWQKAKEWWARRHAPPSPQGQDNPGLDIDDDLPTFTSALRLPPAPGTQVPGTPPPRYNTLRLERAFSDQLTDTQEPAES
Assay: In vitro measure of sodium channel blocking activity: inhibition of short circuit current (ISC) in airway epithelial monolayers in Ussing chambers
Format: cell-based
Details: mean of N runs; for Fold Amiloride** (PSA 4022 = 100) Mean: relative potency for PSA 4022 = 100 using EC50 from PSA 4022 in same run
Experimental: One assay used to assess mechanism of action and/or potency of the compounds of the present invention involves the determination of lumenal drug inhibition of airway epithelial sodium currents measured under short circuit current (ISC) using airway epithelial monolayers mounted in Ussing chambers. Cells obtained from freshly excised human, dog, sheep or rodent airways are seeded onto porous 0.4 micron Snapwell™ Inserts (CoStar), cultured at air-liquid interface (ALI) conditions in hormonally defined media, and assayed for sodium transport activity (ISC) while bathed in Krebs Bicarbonate Ringer (KBR) in Using chambers. All test drug additions are to the lumenal bath with half-log dose addition protocols (from 1×10^−11 M to 3×10^−5M), and the cumulative change in ISC (inhibition) recorded. All drugs are prepared in dimethyl sulfoxide as stock solutions at a concentration of 1×10^−2 M and stored at −20° C. […] After the maximal concentration (5×10^−5 M) is administered, the lumenal bath is exchanged three times with fresh drug-free KBR solution, and the resultant ISC measured after each wash for approximately 5 minutes in duration. Reversibility is defined as the percent return to the baseline value for sodium current after the third wash. All data from the voltage clamps are collected via a computer interface and analyzed off-line.
Dose-effect relationships for all compounds are considered and analyzed by the Prism 3.0 program.
PSA 4022 was also tested in each assay as a positive control.

Compound	EC50 [nM]	Fold Amiloride** (PSA 4022 = 100) Mean
N=C(NCCCCc1ccc(SCCC(N)=O)cc1)NC(=O)c1nc(Cl)c(N)nc1N [PSA 19605, 3-(4-{4-[N′-(3,5-diamino-6-chloropyrazine-2-carbonyl)guanidino]butyl}phenylthio)propionamide]	4.7	145
N=C(NCCCCc1ccc(N(CCN(C[C@H](O)CO)C[C@H](O)CO)C[C@H](O)CO)cc1)NC(=O)c1nc(Cl)c(N)nc1N [PSA 16311, N-(4{4-[{2-[N,N-bis-((2S)-2,3-dihydroxypropyl)amino]ethyl}-N-((2S)-2,3-dihydroxypropyl)amino]phenyl}butyl)-N′-(3,5-diamino-6-chloropyrazine-2-carbonyl)guanidine]	33.2	25.6
N=C(NCCCCc1ccc(NCCN(C[C@H](O)[C@H](O)CO)C[C@H](O)[C@H](O)CO)cc1)NC(=O)c1nc(Cl)c(N)nc1N [PSA 17218, N-[4-(4-{2-[bis-((2S,3R)-2,3,4-trihydroxybutyl)amino]ethylamino}phenyl)butyl]-N′-(3,5-diamino-6-chloropyrazine-2-carbonyl)guanidine trihydrochloride]	32.4	24.7
N=C(NCCCCc1ccc(NCCNC[C@@H](O)CO)cc1)NC(=O)c1nc(Cl)c(N)nc1N [PSA 16721, N-(4-{4-[{2-[((2R)-2,3-dihydroxypropyl)amino]ethylamino}phenyl)butyl-N′-(3,5-diamino-6-chloropyrazine-2-carbonyl)guanidinetrihydrochloride]	25.4	44.7
N=C(NCCCCc1ccc(OCCNCC(N)C(N)=O)cc1)NC(=O)c1nc(Cl)c(N)nc1N (centres unmarked) [PSA 18704, 2-amino-3-[2-(4-{4-[N′-(3,5-diamino-6-chloropyrazine-2-carbonyl)-guanidino]butyl}phenoxy)ethylamino]propionamide tri-hydrochloride]	14.1	90.2
N=C(N)NCCNc1ccc(CCCCNC(=N)NC(=O)c2nc(Cl)c(N)nc2N)cc1 [PSA 17339, N-(3,5-diamino-6-chloropyrazine-2-carbonyl)-N′-{4-[(2-guanidinoethylamino)phenyl]butyl}guanidine trihydrochloride]	6.83	
N=C(NCCCCc1ccc(OCC(=O)N(CCO)CCO)cc1)NC(=O)c1nc(Cl)c(N)nc1N [PSA 16826, 2-(4-{4-[N′-(3,5-diamino-6-chloropyrazine-2-carbonyl)guanidino]-butyl}phenoxy)-N,N-bis-(2-hydroxyethyl)acetamide]	12.7	64.9
CS(=O)(=O)N(c1ccc(CCCCNC(=N)NC(=O)c2nc(Cl)c(N)nc2N)cc1)S(C)(=O)=O [PSA 10316, N-(3,5-Diamino-6-chloropyrazine-2-carbonyl)-N′-[4-(4-bis(methanesulfonyl)aminophenyl)butyl]guanidine]	9.56	132
COC(=O)C(N)CCOc1ccc(CCCCNC(=N)NC(=O)c2nc(Cl)c(N)nc2N)cc1 (centres unmarked) [PSA 17587, 2-amino-4-(4-{4-[N′-(3,5-diamino-6-chloropyrazine-2-carbonyl)-guanidino]butyl}phenoxy)butyric acid methyl ester hydrochloride]	19.4	31.3
COC(=O)[C@@H](N)COc1ccc(CCCCNC(=N)NC(=O)c2nc(Cl)c(N)nc2N)cc1 [PSA 11041, 2-amino-3-(4-{4-[N′-(3,5-diamino-6-chloropyrazine-2-carbonyl)-guanidino]butyl}phenoxy)propionic acid methyl ester]	32	38.6
Cl.N=C(N)NCCNC(=O)c1ccc(CCCCNC(=N)NC(=O)c2nc(Cl)c(N)nc2N)cc1 [PSA 11834, 4-{4-[N′-(3,5-diamino-6-chloropyrazine-2-carbonyl)guanidino]butyl}-N-(2-guanidinoethyl)benzamide hydrochloride]	3.68	276

Other lines, results leading:

EC50 [nM]	Fold Amiloride** (PSA 4022 = 100) Mean	Compound
5.82	136	N=C(NCCCCc1ccc(C(=O)NCCN)cc1)NC(=O)c1nc(Cl)c(N)nc1N [PSA 11698, 4-{4-[N-(3,5-diamino-6-chloropyrazine-2-carbonyl)guanidino]butyl}-N-(2-aminoethyl)benzamide hydrochloride]
69	12 .4	N=C(NCCCCc1ccc(NCCCC(=O)O)cc1)NC(=O)c1nc(Cl)c(N)nc1N [PSA 18345, 4-(4-{4-[N′-(3,5-diamino-6-chloropyrazine-2-carbonyl)guanidino]-butyl}phenylamino)butyric acid]
3.27	268	N=C(N)NCCC(=O)Nc1ccc(CCCCNC(=N)NC(=O)c2nc(Cl)c(N)nc2N)cc1 [PSA 14984, N-(4-{4-[N′-(3,5-diamino-6-chloropyrazine-2-carbonyl)guanidino]-butyl}phenyl)-3-guanidinopropionamide dihydrochloride]
3.92	131	N=C(NCCCCc1ccc(NC(=O)CCN)cc1)NC(=O)c1nc(Cl)c(N)nc1N [PSA 14568, dihydrochloride]
19.1	26.4	N=C(NCCCCc1ccc(NCC(N)=O)cc1)NC(=O)c1nc(Cl)c(N)nc1N [PSA 15104, 2-(4-{4-[N′-(3,5-diamino-6-chloropyrazine-2-carbonyl)guanidino]-butyl}phenylamino)acetamide dihydrochloride]
23.8	44.4	N=C(NCCCCc1ccc(NCCCC(N)=O)cc1)NC(=O)c1nc(Cl)c(N)nc1N [PSA 18150, 4-(4-(4-[N′-(3,5-diamino-6-chloropyrazine-2-carbonyl)guanidino]-butyl}phenylamino)butyramide dihydrochloride]
15.4	35.6	N=C(NCCCCc1ccc(NCCN)cc1)NC(=O)c1nc(Cl)c(N)nc1N [PSA 16436, N-{4-[4-(2-aminoethylamino)phenyl]butyl}-N′-(3,5-diamino-6-chloropyrazine-2-carbonyl)guanidine]
